Data published in patent US20100331410A1, “Biaryl Amides” (Asterand UK Limited, priority 2008, published 2010).

Row | melting point | Compound
1 | 216 to 218 °C | NC(=O)/C=C/c1cccc(NC(=O)c2cc(-c3cccc(F)c3)ccc2F)c1 [Compound 7, 3-[(3′-Fluoro-4-fluorobiphenyl-3-carbonyl)amino]cinnamamide]
2 | 144 to 145 °C | COC(=O)/C=C/c1cccc(NC(=O)c2cc(-c3cccc(F)c3)ccc2F)c1 [Compound 6, 3-[(3′-Fluoro-4-fluorobiphenyl-3-carbonyl)amino]cinnamic acid, methyl ester]
3 | 154 to 155 °C | CC(C)OC(=O)/C=C/c1cccc(NC(=O)c2cc(-c3cccc(F)c3)ccc2F)c1 [Compound 5, 3-[(3′-Fluoro-4-fluorobiphenyl-3-carbonyl)amino]cinnamic acid, isopropyl ester]

Further lines, the molecule ahead of its results:

Row | Compound | melting point
4 | NC(=O)COc1cccc(NC(=O)c2cc(-c3cccc(F)c3)ccc2F)c1 [Compound 3, 3-[(3′-Fluoro-4-fluorobiphenyl-3-carbonyl)amino]phenoxyacetamide] | 203 to 206 °C
5 | COC(=O)COc1cccc(NC(=O)c2cc(-c3cccc(F)c3)ccc2F)c1 [Compound 4, 3-[(3′-Fluoro-4-fluorobiphenyl-3-carbonyl)amino]phenoxyacetic acid, methyl ester] | 103 to 104 °C
6 | O=C(COc1cccc(NC(=O)c2cc(-c3cccc(F)c3)ccc2F)c1)OCCO [Compound 1, 3-[(3′-Fluoro-4-fluorobiphenyl-3-carbonyl)amino]phenoxyacetic acid, ethylene glycol ester] | 135 to 137 °C
